Measured values from patent publication US7670629B2, “Method of treating bacterial hoof infections of sheep and cattle” (priority 2005, dated 2010).
Where two headings read alike, the source gives them in different places. Marks after values point to notes of the source that are not given here.

Key:
[1] = tested on: Fusobacterium necrophorum ATCC No. 25286; conditions: for zone of inhibition of Fusobacterium necrophorum: disc on BA plate, anaerobic 48 hours, mean of three assays; for zone of inhibition of F. necrophorum, comparison between minerals: at each of the concentrations (2.5-15%), P<0.01; for zone of inhibition of F. necrophorum, comparison between minerals / overall antibacterial effect on F. necrophorum: in words; for overall antibacterial effect on F. necrophorum: summary
Experimental: (§1) The bacterial strains used for this study were obtained from the American Type Culture Collection (ATCC).
(§2) Dehydrated bacteria were resuspended in 5 mL of Brain Heart Infusion (BHI) broth and incubated anaerobically for 48 hours at 37° C. A total of 20 uL of each resuspended bacterial solution was plated on two 5% Trypticase Sheep Blood Agar (BA) plates and incubated anaerobically for 48 hours at 37° C. to ensure that a pure culture was maintained throughout the resuspension process. Six (6) vials of each bacterium were frozen down from the resuspended broth in a 20% glycerol solution (500 uL bacteria: 500 uL 40% glycerol).
(§3) One vial from the frozen stock of each bacterial strain was grown in 100 mL of Difco Anaerobe Broth MIC. P. melaninogenica was grown anaerobically for 24 hours at 37° C. and F. necrophorum was grown anaerobically for 48 hours at 37° C. After incubation, one hundred (100) 1 mL-vials of each bacterium were frozen down in a 10% glycerol solution.
(§4) Colony forming units/mL (CFU/mL) for each bacterium was determined by thawing 3 vials of each bacteria and making serial 1:10 dilutions out to 10e^−7. Separate serial dilutions were made for each of the three vials. A total of 100 uL of dilutions 10e^−3, 10e^−4, 10e^−5, 10e^−6, and 10e^−7 were plated in duplicate for each vial on BA plates and incubated under the appropriate culture conditions for each. The number of colonies growing on each dilution plate was counted and the CFU/mL for each dilution was determined. The average CFU/mL for each bacterium was calculated and used for all further assays.
(§5) The ZnCl arrived as a 60% solution and was diluted with distilled water to achieve concentrations of 2.5%, 5%, 10%, and 15% by weight. […] All mineral concentrations were filter-sterilized to ensure sterility.
(§6) To determine whether different concentrations of mineral salt solutions can inhibit the growth of an established culture, a separate blank paper disc was infused with each concentration of mineral salt solution and placed onto BA plates that had been swabbed with established cultures of each bacterium. Plates were incubated anaerobically for 48 hours and the zone (in mm) around each disc with no bacterial growth was measured with a caliper. The assay was repeated three times, and the mean zone of inhibition for each mineral concentration was calculated.
(§7) Data were analyzed using the Mixed Model procedure of SAS (PROC MIXED; SAS Stat Inc., Cary, N.C.) to test the effect of different concentrations for each mineral on P. melaninogenica and F. necrophorum. Least square means were calculated and separated using the PDIFF option of SAS. Contrast statements of SAS were used to determine linear and quadratic effects. The plate was used as the experimental unit. An alpha level of 0.05 was used to assess the significance in this experiment.

[2] = tested on: Prevotella melaninogenica ATCC No. 25845; conditions: for zone of inhibition of Prevotella melaninogenica: disc on BA plate, anaerobic 48 hours, mean of three assays; for zone of inhibition of P. melaninogenica, comparison between minerals: at each of the concentrations (2.5-15%); for zone of inhibition of P. melaninogenica, comparison between minerals / overall antibacterial effect on P. melaninogenica: in words; for overall antibacterial effect on P. melaninogenica: summary
Experimental: as §1, §2, §3, §4, §5, §6, §7

[3] = 2.5% solution in distilled water
[4] = 10% solution in distilled water
[5] = 15% solution in distilled water

Row | Structure (SMILES) | zone of inhibition of Fusobacterium necrophorum ([1]; 2.5% solution) | zone of inhibition of Fusobacterium necrophorum ([1]; 5% solution) | zone of inhibition of Fusobacterium necrophorum ([1]; 10% solution) | zone of inhibition of Fusobacterium necrophorum ([1]; 15% solution) | zone of inhibition of F. necrophorum, comparison between minerals [1] | overall antibacterial effect on F. necrophorum [1] | zone of inhibition of Prevotella melaninogenica ([2]; 2.5% solution) | zone of inhibition of Prevotella melaninogenica ([2]; 5% solution) | zone of inhibition of Prevotella melaninogenica ([2]; 10% solution) | zone of inhibition of Prevotella melaninogenica ([2]; 15% solution) | zone of inhibition of P. melaninogenica, comparison between minerals [2] | overall antibacterial effect on P. melaninogenica [2] | pH of mineral salt solution [3] | pH of mineral salt solution (5% solution in distilled water) | pH of mineral salt solution [4] | pH of mineral salt solution [5] | pH relative to the other mineral salts (at all of the concentrations, in words)
1 | [Cl-].[Cl-].[Zn+2] [ZnCl2, zinc chloride] | 27.6^b mm | 33.9^b mm | 41.3^b mm | 44.2^b mm | intermediate | greatest antibacterial effect | 38.9^b mm | 42.5^b mm | 46.6^b mm | 52.0^b mm | significantly greater zone of inhibition | greatest antibacterial effect | 6.02 | 5.78 | 5.43 | 5.21 | less acidic
2 | O=S(=O)([O-])[O-].[Zn+2] [ZnSO4, zinc sulfate] | 25.0^a mm | 29.5^a mm | 35.8^a mm | 40.4^a mm | smallest | only slightly less antibacterial activity | 29.3^a mm | 33.5^a mm | 38.6^a mm | 42.9^a mm |  | only slightly less antibacterial activity | 5.06 | 4.75 | 4.34 | 4.16 | 
3 | O=S(=O)([O-])[O-].[Cu+2] [CuSO4, copper sulfate] | 36.3^c mm | 40.7^c mm | 46.7^c mm | 52.2^c mm | greatest | greatest antibacterial effect | 31.0^a mm | 31.7^a mm | 38.2^a mm | 40.7^a mm | not significantly different | greatest antibacterial effect | 4.34 | 4.13 | 3.94 | 3.81 | 
